Consider 32 compounds from paper PMC6099728, “Investigation of Hydro-Lipophilic Properties of N-Alkoxyphenylhydroxynaphthalenecarboxamides” (Molecules : A Journal of Synthetic Chemistry and Natural …, 2018).

The data set can be described thus: Lipophilicity determination by RP-HPLC (capacity factor k / logk). The data set is classed as physicochemical. Particulars: for logk: isocratic MeOH 72%/H2O 28%, C18 column, 40 °C; for πB (distributive parameter π calculated from logk) / πC (distributive parameter π calculated from logk) / πA (distributive parameter π calculated from logk): π = logkS − logkU; for πB (distributive parameter π calculated from logk): unsubstituted 1b as reference; for πC (distributive parameter π calculated from logk): unsubstituted 1c as reference; for πA (distributive parameter π calculated from logk): unsubstituted 1a as reference. The text has this: A HPLC separation module Waters Alliance 2695 XE equipped with a Waters Dual Absorbance Detector 2486 (Waters Corp., Milford, MA, USA) was used. A chromatographic column Symmetry® C18 5 µm, 4.6 × 250 mm, Part No. W21751W016 (Waters Corp.) was used. The HPLC separation process was monitored by Empower® 3 Chromatography Manager Software (Waters Corp.). Isocratic elution by a mixture of MeOH p.a. (72%) and H2O-HPLC Mili-Q grade (28%) as a mobile phase was used. The total flow of the column was 1.0 mL/min, the injection was 20 μL, the column temperature was 40 °C, and the sample temperature was 10 °C. A detection wavelength of 210 nm was chosen. The KI methanolic solution was used for the determination of dead time (tD). Retention times (tR) were measured in minutes. Capacity factors k were calculated using the Empower® 3 Chromatography Manager Software according to the formula k = (tR − tD)/tD, where tR is the retention time of the solute, while tD is the dead time obtained using an unretained analyte. Each experiment was repeated three times. Logk, which was calculated from the capacity factor k, is used as the lipophilicity index converted to the logP scale.

Each structure is given as a SMILES string.

For `CCCOc1cccc(NC(=O)c2ccc3ccccc3c2O)c1` [9b], where the note is “series B”, the logk was 1.0215 and the “πB (distributive parameter π calculated from logk)” value is given as 0.69.
Turning to `CCCOc1cccc(NC(=O)c2c(O)ccc3ccccc23)c1` [9c], under “series C”, the logk is on record as 0.3209 and the “πC (distributive parameter π calculated from logk)” value is 0.65.
Consider `CCCOc1ccc(NC(=O)c2cc3ccccc3cc2O)cc1` [10a], for which, for the setting “series A”, the logk came out at 0.6963 and the “πA (distributive parameter π calculated from logk)” value is reported as 0.75.
`CCCOc1ccc(NC(=O)c2ccc3ccccc3c2O)cc1` [10b]: where the note is “series B”, the logk stood at 0.9588 and the “πB (distributive parameter π calculated from logk)” value is reported as 0.75.
For the compound `CCCOc1ccc(NC(=O)c2c(O)ccc3ccccc23)cc1` [10c], where the note is “series C”, the logk came out at 0.2622 and the “πC (distributive parameter π calculated from logk)” value was 0.72.
As for `CCCCOc1ccccc1NC(=O)c1cc2ccccc2cc1O` [11a], where the note is “series A”, the logk is 0.9136 and the “πA (distributive parameter π calculated from logk)” value is recorded as 1.08.
For the compound `CCCCOc1ccccc1NC(=O)c1ccc2ccccc2c1O` [11b], where the note is “series B”, the logk stood at 1.5122 and the “πB (distributive parameter π calculated from logk)” value was 1.08.
On to `CCCCOc1ccccc1NC(=O)c1c(O)ccc2ccccc12` [11c], for which, where the note is “series C”, the logk is given as 0.8578 and the “πC (distributive parameter π calculated from logk)” value was 1.04.
For the compound `CCCCOc1cccc(NC(=O)c2cc3ccccc3cc2O)c1` [12a], where the note is “series A”, the logk is on record as 0.9711 and the “πA (distributive parameter π calculated from logk)” value was 1.02.
For `CCCCOc1cccc(NC(=O)c2ccc3ccccc3c2O)c1` [12b], for the setting “series B”, the logk was 1.2088 and the “πB (distributive parameter π calculated from logk)” value is 1.02.
On to `CCCCOc1cccc(NC(=O)c2c(O)ccc3ccccc23)c1` [12c], for which, under “series C”, the logk is reported as 0.5161 and the “πC (distributive parameter π calculated from logk)” value is reported as 1.00.
`CCCCOc1ccc(NC(=O)c2cc3ccccc3cc2O)cc1` [13a]: for the setting “series A”, the logk stood at 0.8961 and the “πA (distributive parameter π calculated from logk)” value is reported as 1.08.
Consider `CCCCOc1ccc(NC(=O)c2ccc3ccccc3c2O)cc1` [13b], for which, for the setting “series B”, the logk is 1.1537 and the “πB (distributive parameter π calculated from logk)” value is 1.08.
`CCCCOc1ccc(NC(=O)c2c(O)ccc3ccccc23)cc1` [13c]: under “series C”, the logk is 0.4604 and the “πC (distributive parameter π calculated from logk)” value is 1.05.
On to `CC(C)Oc1ccccc1NC(=O)c1cc2ccccc2cc1O` [14a], for which, where the note is “series A”, the logk came out at 0.6360 and the “πA (distributive parameter π calculated from logk)” value is listed as 0.66.
For the compound `CC(C)Oc1ccccc1NC(=O)c1ccc2ccccc2c1O` [14b], where the note is “series B”, the logk is 1.2556 and the “πB (distributive parameter π calculated from logk)” value was 0.66.
As for `CC(C)Oc1ccccc1NC(=O)c1c(O)ccc2ccccc12` [14c], for the setting “series C”, the logk is listed as 0.6145 and the “πC (distributive parameter π calculated from logk)” value is 0.66.
Regarding `CC(C)Oc1cccc(NC(=O)c2cc3ccccc3cc2O)c1` [15a], for the setting “series A”, the logk is listed as 0.6723 and the “πA (distributive parameter π calculated from logk)” value is 0.61.
Turning to `CC(C)Oc1cccc(NC(=O)c2ccc3ccccc3c2O)c1` [15b], where the note is “series B”, the logk stood at 0.9355 and the “πB (distributive parameter π calculated from logk)” value was 0.61.
With `CC(C)Oc1cccc(NC(=O)c2c(O)ccc3ccccc23)c1` [15c], where the note is “series C”, the logk turned out to be 0.2214 and the “πC (distributive parameter π calculated from logk)” value is recorded as 0.57.
`CC(C)Oc1ccc(NC(=O)c2cc3ccccc3cc2O)cc1` [16a]: under “series A”, the logk is recorded as 0.6017 and the “πA (distributive parameter π calculated from logk)” value is given as 0.59.
Turning to `CC(C)Oc1ccc(NC(=O)c2ccc3ccccc3c2O)cc1` [16b], for the setting “series B”, the logk is given as 0.8648 and the “πB (distributive parameter π calculated from logk)” value was 0.59.
For the compound `CC(C)Oc1ccc(NC(=O)c2c(O)ccc3ccccc23)cc1` [16c], where the note is “series C”, the logk is reported as 0.1619 and the “πC (distributive parameter π calculated from logk)” value is 0.55.
`CCC(C)Oc1ccccc1NC(=O)c1cc2ccccc2cc1O` (stereo not shown) [17a]: under “series A”, the logk worked out at 0.7956 and the “πA (distributive parameter π calculated from logk)” value is given as 1.00.
Regarding `CCC(C)Oc1ccccc1NC(=O)c1ccc2ccccc2c1O` (stereo not shown) [17b], where the note is “series B”, the logk worked out at 1.4424 and the “πB (distributive parameter π calculated from logk)” value is listed as 1.00.
As to `CCC(C)Oc1ccccc1NC(=O)c1c(O)ccc2ccccc12` (stereo not shown) [17c], for the setting “series C”, the logk turned out to be 0.7927 and the “πC (distributive parameter π calculated from logk)” value is on record as 0.98.
In the case of `CCC(C)Oc1cccc(NC(=O)c2cc3ccccc3cc2O)c1` (stereo not shown) [18a], under “series A”, the logk turned out to be 0.8670 and the “πA (distributive parameter π calculated from logk)” value is listed as 0.95.
Consider `CCC(C)Oc1cccc(NC(=O)c2ccc3ccccc3c2O)c1` (stereo not shown) [18b], for which, under “series B”, the logk is reported as 1.1291 and the “πB (distributive parameter π calculated from logk)” value was 0.95.
`CCC(C)Oc1cccc(NC(=O)c2c(O)ccc3ccccc23)c1` (stereo not shown) [18c]: where the note is “series C”, the logk is given as 0.4129 and the “πC (distributive parameter π calculated from logk)” value is listed as 0.91.
Turning to `CCC(C)Oc1ccc(NC(=O)c2cc3ccccc3cc2O)cc1` (stereo not shown) [19a], for the setting “series A”, the logk was found to be 0.7977 and the “πA (distributive parameter π calculated from logk)” value was 0.09.
On to `CCC(C)Oc1ccc(NC(=O)c2ccc3ccccc3c2O)cc1` (stereo not shown) [19b], for which, under “series B”, the logk is given as 1.0518 and the “πB (distributive parameter π calculated from logk)” value is on record as 0.94.
For the compound `CCC(C)Oc1ccc(NC(=O)c2c(O)ccc3ccccc23)cc1` (stereo not shown) [19c], under “series C”, the logk is on record as 0.3621 and the “πC (distributive parameter π calculated from logk)” value is 0.91.
